Measurements: ChEMBL document CHEMBL1781923, “Synthesis and anti-tumor evaluation of panaxadiol derivatives” (Eur J Med Chem, 2011)

Assays:
U2OS [1] = assay: Cytotoxicity against human U2OS cells assessed as cell viability at 50 uM after 48 hrs by MTT assay; format: functional; conditions: read-out: Activity
A549 [2] = assay: Cytotoxicity against human A549 cells assessed as cell viability at 50 uM after 48 hrs by MTT assay; format: functional; conditions: A549, 48 h, read-out: Activity
HepG2 [3] = assay: Cytotoxicity against human HepG2 cells after 48 hrs by MTT assay; format: functional, cell-based; conditions: HepG2, 48 h
U2OS [4] = assay: Cytotoxicity against human U2OS cells after 48 hrs by MTT assay; format: functional, cell-based
A549 [5] = assay: Cytotoxicity against human A549 cells after 48 hrs by MTT assay; format: functional, cell-based; conditions: A549, 48 h
[6] = Cytotoxicity against human ES2 cells assessed as cell viability at 25 uM after 48 hrs by MTT assay; format: functional; conditions: ES-2, 48 h, read-out: Activity
U2OS [7] = assay: Cytotoxicity against human U2OS cells assessed as cell viability at 25 uM after 48 hrs by MTT assay; format: functional; conditions: read-out: Activity
A549 [8] = assay: Cytotoxicity against human A549 cells assessed as cell viability at 100 uM after 48 hrs by MTT assay; format: functional; conditions: A549, 48 h, read-out: Activity
[9] = Cytotoxicity against human ES2 cells after 48 hrs by MTT assay; format: functional, cell-based; conditions: ES-2, 48 h
HepG2 [10] = assay: Cytotoxicity against human HepG2 cells assessed as cell viability at 50 uM after 48 hrs by MTT assay; format: functional; conditions: HepG2, 48 h, read-out: Activity
[11] = Cytotoxicity against human ES2 cells assessed as cell viability at 50 uM after 48 hrs by MTT assay; format: functional; conditions: ES-2, 48 h, read-out: Activity
HepG2 [12] = assay: Cytotoxicity against human HepG2 cells assessed as cell viability at 25 uM after 48 hrs by MTT assay; format: functional; conditions: HepG2, 48 h, read-out: Activity

Structure (SMILES) | viability at 50 µM (U2OS [1]) | viability at 50 µM (A549 [2]) | IC50 (HepG2 [3]) | IC50 (U2OS [4]) | IC50 (A549 [5]) | viability at 25 µM [6] | viability at 25 µM (U2OS [7]) | viability at 100 µM (A549 [8]) | IC50 [9] | viability at 50 µM (HepG2 [10]) | viability at 50 µM [11] | viability at 25 µM (HepG2 [12])
CC(C)=CCC[C@@](C)(O)[C@H]1CC[C@]2(C)[C@@H]1[C@H](O)C[C@@H]1[C@@]3(C)CC[C@H](O[C@@H]4O[C@H](CO)[C@@H](O)[C@H](O)[C@H]4O[C@@H]4O[C@H](CO)[C@@H](O)[C@H](O)[C@H]4O)C(C)(C)[C@@H]3CC[C@]12C | 81.3% | 75.6% | > 100 µM | > 100 µM | > 100 µM | 82% | 72.2% | 71.1% | > 100 µM | 76.2% | 74.5% | 81.3%
C=CC(=O)O[C@H]1CC[C@]2(C)[C@H]3C[C@@H](O)[C@@H]4[C@@H]([C@@]5(C)CCCC(C)(C)O5)CC[C@@]4(C)[C@]3(C)CC[C@H]2C1(C)C | – | – | > 50 µM | 20.8 µM | > 50 µM | – | – | – | 8.02 µM | – | – | –
C/C=C(\C)C(=O)O[C@H]1CC[C@]2(C)[C@H]3C[C@@H](O)[C@@H]4[C@@H]([C@@]5(C)CCCC(C)(C)O5)CC[C@@]4(C)[C@]3(C)CC[C@H]2C1(C)C | – | – | > 50 µM | 14.7 µM | > 50 µM | – | – | – | 4.26 µM | – | – | –
C=CCCC(=O)O[C@H]1CC[C@]2(C)[C@H]3C[C@@H](O)[C@@H]4[C@@H]([C@@]5(C)CCCC(C)(C)O5)CC[C@@]4(C)[C@]3(C)CC[C@H]2C1(C)C | – | – | > 50 µM | 39 µM | > 50 µM | – | – | – | 11.8 µM | – | – | –
C/C=C/C=C/C(=O)O[C@H]1CC[C@]2(C)[C@H]3C[C@@H](O)[C@@H]4[C@@H]([C@@]5(C)CCCC(C)(C)O5)CC[C@@]4(C)[C@]3(C)CC[C@H]2C1(C)C | – | – | > 50 µM | 43.3 µM | > 50 µM | – | – | – | 13.7 µM | – | – | –
CC/C=C(\C)C(=O)O[C@H]1CC[C@]2(C)[C@H]3C[C@@H](O)[C@@H]4[C@@H]([C@@]5(C)CCCC(C)(C)O5)CC[C@@]4(C)[C@]3(C)CC[C@H]2C1(C)C | – | – | > 50 µM | 38 µM | > 50 µM | – | – | – | 24.2 µM | – | – | –
CCC/C=C/C(=O)O[C@H]1CC[C@]2(C)[C@H]3C[C@@H](O)[C@@H]4[C@@H]([C@@]5(C)CCCC(C)(C)O5)CC[C@@]4(C)[C@]3(C)CC[C@H]2C1(C)C | – | – | > 50 µM | 43.9 µM | > 50 µM | – | – | – | 13.7 µM | – | – | –
C=CCCCCCCCCC(=O)O[C@H]1CC[C@]2(C)[C@H]3C[C@@H](O)[C@@H]4[C@@H]([C@@]5(C)CCCC(C)(C)O5)CC[C@@]4(C)[C@]3(C)CC[C@H]2C1(C)C | – | – | > 50 µM | 31.6 µM | > 50 µM | – | – | – | 19.4 µM | – | – | –
CCCCC/C=C/C/C=C/CCCCCCCC(=O)O[C@H]1CC[C@]2(C)[C@H]3C[C@@H](O)[C@@H]4[C@@H]([C@@]5(C)CCCC(C)(C)O5)CC[C@@]4(C)[C@]3(C)CC[C@H]2C1(C)C | – | – | > 50 µM | 32.1 µM | > 50 µM | – | – | – | 17.9 µM | – | – | –
CCCCCCCC/C=C/CCCCCCCC(=O)O[C@H]1CC[C@]2(C)[C@H]3C[C@@H](O)[C@@H]4[C@@H]([C@@]5(C)CCCC(C)(C)O5)CC[C@@]4(C)[C@]3(C)CC[C@H]2C1(C)C | – | – | > 50 µM | 16.6 µM | > 50 µM | – | – | – | 20.9 µM | – | – | –
CCCCCCCC/C=C/CCCCCCCCCCCC(=O)O[C@H]1CC[C@]2(C)[C@H]3C[C@@H](O)[C@@H]4[C@@H]([C@@]5(C)CCCC(C)(C)O5)CC[C@@]4(C)[C@]3(C)CC[C@H]2C1(C)C | – | – | > 50 µM | 40.5 µM | > 50 µM | – | – | – | 14.8 µM | – | – | –
CC1(C)CCC[C@](C)([C@H]2CC[C@]3(C)[C@@H]2[C@H](O)C[C@@H]2[C@@]4(C)CC[C@H](OC(=O)CN)C(C)(C)[C@@H]4CC[C@]23C)O1 | 12% | 18.7% | 11.3 µM | 13.7 µM | 14 µM | 7.51% | 13% | 13.5% | 9.9 µM | 10% | 6.66% | 10.3%
CC(C)C(N)C(=O)O[C@H]1CC[C@]2(C)[C@H]3C[C@@H](O)[C@@H]4[C@@H]([C@@]5(C)CCCC(C)(C)O5)CC[C@@]4(C)[C@]3(C)CC[C@H]2C1(C)C (stereo partly specified) | 13.7% | 21.2% | 9.29 µM | 17.3 µM | 31.8 µM | 14.6% | 16.4% | 15.4% | 16.2 µM | 11.7% | 6.47% | 26.4%
CC(C)CC(N)C(=O)O[C@H]1CC[C@]2(C)[C@H]3C[C@@H](O)[C@@H]4[C@@H]([C@@]5(C)CCCC(C)(C)O5)CC[C@@]4(C)[C@]3(C)CC[C@H]2C1(C)C (stereo partly specified) | 14.3% | 18.1% | 5.03 µM | 18 µM | 24.9 µM | 10.8% | 18.1% | 10.5% | 17.9 µM | 15.3% | 6.91% | 28.1%
CSCCC(N)C(=O)O[C@H]1CC[C@]2(C)[C@H]3C[C@@H](O)[C@@H]4[C@@H]([C@@]5(C)CCCC(C)(C)O5)CC[C@@]4(C)[C@]3(C)CC[C@H]2C1(C)C (stereo partly specified) | 11.6% | 21.6% | 11.8 µM | 16.8 µM | 22.4 µM | 13% | 18.4% | 12.7% | 13.1 µM | 8.56% | 6.4% | 28.4%
CC1(C)CCC[C@](C)([C@H]2CC[C@]3(C)[C@@H]2[C@H](O)C[C@@H]2[C@@]4(C)CC[C@H](OC(=O)C(N)Cc5ccccc5)C(C)(C)[C@@H]4CC[C@]23C)O1 (stereo partly specified) | 10.9% | 20.5% | 8.82 µM | 16.4 µM | 18.6 µM | 10.3% | 15% | 15.2% | 15.2 µM | 8.82% | 8.58% | 9.95%
CC1(C)CCC[C@](C)([C@H]2CC[C@]3(C)[C@@H]2[C@H](O)C[C@@H]2[C@@]4(C)CC[C@H](OC(=O)C5CCCN5)C(C)(C)[C@@H]4CC[C@]23C)O1 (stereo partly specified) | 8.72% | 19.5% | 8.91 µM | 14.4 µM | 7.63 µM | 10.4% | 12.4% | 14.1% | 16.7 µM | 6.39% | 6.04% | 5.72%
CC1(C)CCC[C@](C)([C@H]2CC[C@]3(C)[C@@H]2[C@H](O)C[C@@H]2[C@@]4(C)CC[C@H](O)C(C)(C)[C@@H]4CC[C@]23C)O1 [PANAXADIOL] | 25.7% | 36% | 37.9 µM | 26.8 µM | 43.1 µM | 18.8% | 53.4% | 24.5% | 5.61 µM | 37.7% | 12.4% | 69%
